Test results as given in PubChem BioAssay (NCI).
Several values for one entry are separate records, joined by “and”; a condition that tells them apart may be missing. Equal values may be shown once.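 Abbreviation: GI50, concentration required for 50% inhibition of growth. Definition used: TGI = concentration required for complete inhibition of growth.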

Experiments:
Assay in all cases: NCI-60 cell line screen, 384-well format
786-0 renal = tested on: 786-0 renal
A498 renal = tested on: A498 renal
A549 NSCLC = tested on: A549 NSCLC
ACHN renal = tested on: ACHN renal
BT-549 breast = tested on: BT-549 breast
CAKI-1 renal = tested on: CAKI-1 renal
CCRF-CEM leukemia = tested on: CCRF-CEM leukemia
COLO 205 colon = tested on: COLO 205 colon
DU-145 prostate = tested on: DU-145 prostate
EKVX NSCLC = tested on: EKVX NSCLC
HCC-2998 colon = tested on: HCC-2998 colon
HCT-116 colon = tested on: HCT-116 colon
HCT-15 colon = tested on: HCT-15 colon
HL-60(TB) leukemia = tested on: HL-60(TB) leukemia
HOP-62 NSCLC = tested on: HOP-62 NSCLC
HOP-92 NSCLC = tested on: HOP-92 NSCLC
HS 578T breast = tested on: HS 578T breast
HT29 colon = tested on: HT29 colon
IGROV1 ovarian = tested on: IGROV1 ovarian
K-562 leukemia = tested on: K-562 leukemia
KM12 colon = tested on: KM12 colon
LOX IMVI melanoma = tested on: LOX IMVI melanoma
M14 melanoma = tested on: M14 melanoma
MALME-3M melanoma = tested on: MALME-3M melanoma
MCF7 breast = tested on: MCF7 breast
MDA-MB-231 breast = tested on: MDA-MB-231 breast
MDA-MB-435 melanoma = tested on: MDA-MB-435 melanoma
MDA-MB-468 breast = tested on: MDA-MB-468 breast
MOLT-4 leukemia = tested on: MOLT-4 leukemia
NCI-H226 lung = tested on: NCI-H226 lung
NCI-H23 lung = tested on: NCI-H23 lung
NCI-H322M lung = tested on: NCI-H322M lung
NCI-H460 NSCLC = tested on: NCI-H460 NSCLC
NCI/ADR-RES ovarian = tested on: NCI/ADR-RES ovarian
OVCAR-3 ovarian = tested on: OVCAR-3 ovarian
OVCAR-4 ovarian = tested on: OVCAR-4 ovarian
OVCAR-5 ovarian = tested on: OVCAR-5 ovarian
OVCAR-8 ovarian = tested on: OVCAR-8 ovarian
PC-3 prostate = tested on: PC-3 prostate
RPMI-8226 leukemia = tested on: RPMI-8226 leukemia
RXF 393 renal = tested on: RXF 393 renal
SF-268 CNS = tested on: SF-268 CNS
SF-295 CNS = tested on: SF-295 CNS
SF-539 CNS = tested on: SF-539 CNS
SK-MEL-2 melanoma = tested on: SK-MEL-2 melanoma
SK-MEL-28 melanoma = tested on: SK-MEL-28 melanoma
SK-MEL-5 melanoma = tested on: SK-MEL-5 melanoma
SK-OV-3 ovarian = tested on: SK-OV-3 ovarian
SN12C renal = tested on: SN12C renal
SNB-19 CNS = tested on: SNB-19 CNS
SNB-75 CNS = tested on: SNB-75 CNS
SW-620 colon = tested on: SW-620 colon
T-47D breast = tested on: T-47D breast
TK-10 renal = tested on: TK-10 renal
U251 glioblastoma = tested on: U251 glioblastoma
UACC-62 melanoma = tested on: UACC-62 melanoma
UO-31 renal = tested on: UO-31 renal

With `CCc1nc(C(N)=O)c(Nc2ccc(N3CCC(N4CCN(C)CC4)CC3)c(OC)c2)nc1NC1CCOCC1` the GI50 ([…]-0 renal) was 1030 nM and 313 nM, the TGI (786-0 renal) was 5870 nM and 1580 nM and the GI50 (A498 renal) was 619 nM and 283 nM. For the same compound, the GI50 (A549 NSCLC) was 533 nM and 259 nM, the GI50 (ACHN renal) was 593 nM and 391 nM and the TGI (ACHN renal) was over 100000 nM. The GI50 (BT-549 breast) was 551 nM and 339 nM, the TGI (BT-549 breast) was 2580 nM and 1730 nM and the GI50 (CAKI-1 renal) was 247 nM and 155 nM. The TGI (CAKI-1 renal) was 556 nM, the GI50 (CCRF-CEM leukemia) was 1730 nM and 828 nM and the TGI (CCRF-CEM leukemia) was 3390 nM and 2100 nM. For the same compound, the GI50 (COLO 205 colon) was 495 nM and 303 nM, the TGI (COLO 205 colon) was 5230 nM and 1100 nM and the GI50 (DU-145 prostate) was 491 nM and 322 nM. The GI50 (EKVX NSCLC) was 463 nM, the TGI (EKVX NSCLC) was 99300 nM and the GI50 (HCC-2998 colon) was 180 nM and 253 nM. The TGI (HCC-2998 colon) was 5550 nM and 3080 nM, the GI50 (HCT-116 colon) was 494 nM and 294 nM and the TGI (HCT-116 colon) was 5950 nM and 3070 nM. The GI50 (HCT-15 colon) was 458 nM and 318 nM, the TGI (HCT-15 colon) was over 100000 nM and the GI50 (HL-60(TB) leukemia) was 357 nM and 185 nM. For the same compound, the TGI (HL-60(TB) leukemia) was 1030 nM and 403 nM, the GI50 (HOP-62 NSCLC) was 1230 nM and 392 nM and the GI50 (HOP-92 NSCLC) was 114 nM and 36.3 nM. The TGI (HOP-92 NSCLC) was 608 nM and 213 nM, the GI50 (HS 578T breast) was 1180 nM and the TGI (HS 578T breast) was 3540 nM. The GI50 (HT29 colon) was 282 nM and 174 nM, the GI50 (IGROV1 ovarian) was 335 nM and 179 nM and the TGI (IGROV1 ovarian) was 1620 nM and 484 nM. The GI50 (K-562 leukemia) was 1250 nM, the TGI (K-562 leukemia) was 3940 nM and the GI50 (KM12 colon) was 35.3 nM and 16.5 nM. The GI50 (LOX IMVI melanoma) was 775 nM and 371 nM, the GI50 (M14 melanoma) was 402 nM and 239 nM and the TGI (M14 melanoma) was 1790 nM and 1160 nM. For the same compound, the GI50 (MALME-3M melanoma) was 302 nM and 155 nM, the TGI (MALME-3M melanoma) was 1700 nM and 1060 nM and the GI50 (MCF7 breast) was 383 nM and 247 nM. The GI50 (MDA-MB-231 breast) was 474 nM and 370 nM, the TGI (MDA-MB-231 breast) was 2570 nM and 1760 nM and the GI50 (MDA-MB-435 melanoma) was 704 nM and 329 nM. For the same compound, the TGI (MDA-MB-435 melanoma) was over 100000 nM, the GI50 (MDA-MB-468 breast) was 2150 nM and the GI50 (MOLT-4 leukemia) was 371 nM and 191 nM. The TGI (MOLT-4 leukemia) was 1330 nM and 375 nM, the GI50 (NCI-H226 lung) was 584 nM and 593 nM and the TGI (NCI-H226 lung) was 4610 nM. For the same compound, the GI50 (NCI-H23 lung) was 300 nM and 123 nM, the TGI (NCI-H23 lung) was 5540 nM and 617 nM and the GI50 (NCI-H322M lung) was 674 nM and 246 nM. The GI50 (NCI-H460 NSCLC) was 465 nM and 292 nM, the GI50 (NCI/ADR-RES ovarian) was 3260 nM and 2240 nM and the TGI (NCI/ADR-RES ovarian) was over 100000 nM. For the same compound, the GI50 (OVCAR-3 ovarian) was 1170 nM and 584 nM, the TGI (OVCAR-3 ovarian) was > 25600 nM and 4320 nM and the GI50 (OVCAR-4 ovarian) was over 100000 nM. The TGI (OVCAR-4 ovarian) was over 100000 nM, the GI50 (OVCAR-5 ovarian) was 503 nM and 216 nM and the GI50 (OVCAR-8 ovarian) was 5100 nM and 758 nM. The TGI (OVCAR-8 ovarian) was over 100000 nM, the GI50 (PC-3 prostate) was 385 nM and 672 nM and the TGI (PC-3 prostate) was over 100000 nM. The GI50 (RPMI-8226 leukemia) was 975 nM and 255 nM, the TGI (RPMI-8226 leukemia) was 4200 nM and 984 nM and the GI50 (RXF 393 renal) was 1170 nM and 208 nM. The GI50 (SF-268 CNS) was 2190 nM and 1360 nM, the TGI (SF-268 CNS) was over 26500 nM and the GI50 (SF-295 CNS) was 4620 nM and 1040 nM. For the same compound, the TGI (SF-295 CNS) was > 20900 nM and 3070 nM, the GI50 (SF-539 CNS) was 1910 nM and 638 nM and the TGI (SF-539 CNS) was 6720 nM and 2320 nM. For the same compound, the GI50 (SK-MEL-2 melanoma) was 242 nM, the TGI (SK-MEL-2 melanoma) was 1300 nM and the GI50 (SK-MEL-28 melanoma) was 227 nM. The TGI (SK-MEL-28 melanoma) was 986 nM, the GI50 (SK-MEL-5 melanoma) was 661 nM and 406 nM and the TGI (SK-MEL-5 melanoma) was over 100000 nM. For the same compound, the GI50 (SK-OV-3 ovarian) was 339 nM and 160 nM, the GI50 (SN12C renal) was 168 nM and 67.1 nM and the TGI (SN12C renal) was over 100000 nM. For the same compound, the GI50 (SNB-19 CNS) was 3390 nM and 1080 nM, the TGI (SNB-19 CNS) was over 100000 nM and the GI50 (SNB-75 CNS) was 1360 nM. The TGI (SNB-75 CNS) was 4160 nM, the GI50 (SW-620 colon) was 587 nM and 444 nM and the TGI (SW-620 colon) was 2070 nM and 1580 nM. For the same compound, the TGI (T-47D breast) was over 100000 nM, the GI50 (TK-10 renal) was 1680 nM and 818 nM and the GI50 (U251 glioblastoma) was 6480 nM and 834 nM. The GI50 (UACC-62 melanoma) was 396 nM and 214 nM, the TGI (UACC-62 melanoma) was 1320 nM and the GI50 (UO-31 renal) was 457 nM and 231 nM.
